Counter-ions that a name gives are not always drawn.

A word on the IC50: it is the concentration that gives 50% inhibition.

The experiment has as its system Aβ42 production. Nature of the experiment: Quantification of Aβ peptide (Aβx-42 ELISA) in neuronal culture from rat fetus brain. Format: cell-based. The settings on record: primary neuronal culture from cerebral cortices of embryonic day 18 Wistar rat; compound added on day 4 of culture, incubation for 3 days; Aβx-42 in medium by ELISA, % of CTRL; read-out: Effect to Reduce Aβ42 Production IC50. As for the experimental part: Quantification of Aβ Peptide in Neuronal Culture from Rat Fetus Brain (1)
Primary neuronal cultures were prepared from cerebral cortices from embryonic day 18 Wistar rat (Charles River Japan, Yokohama, Japan). The embryos were aseptically removed from a pregnant rat under ether anesthesia. The brain was isolated from the embryo, and immersed in ice-cold L-15 medium (for example, Invitrogen Corp. Cat #11415-064, Carlsbad, Calif., USA, or SIGMA L1518, St. Louis. MO, USA). The cerebral cortex was collected under a stereoscopic microscope from the brain. The cerebral cortex fragments collected were subjected to enzyme treatment in an enzyme solution containing 0.25% trypsin (for example, Invitrogen Corp., Cat #15050-065, Carlsbad, Calif., USA) and 0.01% DNase (for example, Sigma D5025, St. Louis. MO, USA) at 37 C for 30 minutes to allow for cell dispersion. The enzyme reaction was terminated by addition of same volume of heat-inactivated horse serum. After centrifugation at 1500 rpm for 5 minutes, the supernatant was removed and 5-10 ml of medium was added to the cell pellet. Neurobasal Medium™ (Invitrogen Corp., Carlsbad, Calif., USA) supplemented with 2% B-27 supplement (Invitrogen Corp., Carlsbad, Calif., USA), 25 μM 2-mercaptoethanol (2-ME, WAKO, 139-06861, Osaka, Japan), 0.5 mM L-glutamine (for example, Invitrogen Corp., Cat # 25030-081, Carlsbad, Calif., USA), and 1% antibiotics-antimycotics (Invitrogen Corp., Cat # 15240-062, Carlsbad, Calif., USA) was used as the culture medium (Neurobasal/B27/2-ME). At the compound evaluation, the medium of the same composition not to add 2-ME alone (Neurobasal/B27) was used. The cell pellet was triturated by mild pipetting. Remaining cell pellet was removed by filtering through a 40-μm nylon mesh (Cell Strainer, Cat # 35-2340, Becton Dickinson Labware, Franklin Lakes, N.J., USA) and a neuronal cell suspension was obtained. The neuronal cell suspension was diluted with the Neurobasal/B27/2-ME medium and then plated in a volume of 100 μl/well to obtain an initial cell density of 5×10^5 cells/cm^2 in a 96-well polystyrene plate pre-coated with poly-L or D-lysine (for example, Falcon MICROTEST Tissue culture plate 96 well flat bottom with low evaporation lid (Cat # 35-3075, Becton Dickinson Labware, Franklin Lakes, N.J., USA) coated with poly-L-lysine using the method shown below, or BIOCOAT™ cell environments Poly-D-lysine cell ware 96-well plate, Cat # 35-6461, Becton Dickinson Labware, Franklin Lakes, N.J., USA). Poly-L-lysine coating was carried out as follows. Poly-L-lysine (SIGMA P2636, St. Louis, Mo., USA) solution at 100 μg/ml was prepared aseptically with 0.15 M Borate buffer (pH 8.5). The solution was added to a 96-well polystyrene […] at 50-100 μl/well and incubated at room temperature for one hour or more, or at 4 C overnight or longer. This was rinsed 4 or more times with sterile water, and then dried or rinsed with, for example, sterile PBS or medium, and used for plating cells. Cells were cultured for one day in an incubator of 5% CO2-95% air at 37 C, the entire amount of the medium was exchanged with fresh Neurobasal/B27/2-ME, and the cells were then cultured for further 3 days.
Drugs were added on day 4 of culture as follows. The entire amount of the medium was removed from culture well, and Neurobasal/B27 medium was added at 180 μl/well. The test compound dimethyl sulfoxide (hereinafter abbreviated as DMSO) solution was diluted with Neurobasal/B27 so than it would be 10-fold of the desired final concentration. A diluent was added at 20 μl/well and mixed well. The final concentration of DMSO was 1% or less. Only DMSO was added to the control group.
After incubation for 3 days, the entire amount of the medium was collected as ELISA sample. This was used without any dilution for Aβx-42 measurement, and diluted to 5-fold with the diluent supplied with ELISA kit for Aβx-40 measurement, before subjecting to respective ELISA assays. […]
(In general: In an ELISA, binding on a coated surface is turned into a signal by an enzyme label.)
As to `COc1cc(C=C(F)C(=O)N[C@@H]2c3ccccc3C[C@@H]2O)ccc1-n1cnc(C)c1` (stereo in doubt) [Example 90, (E)-2-fluoro-N-[(1R,2S)-2-hydroxy-indan-1-yl]-3-[3-methoxy-4-(4-methyl-1H-imidazol-1-yl)phenyl]acrylamide], the IC50 stood at 240 nM.

For `COc1cc(/C=C2\CCCN(Cc3ccc(F)c(F)c3)C2=O)ccc1-n1cnc(C)c1` [Example 416, (E)-1-(3,4-difluorobenzyl)-3-[3-methoxy-4-(4-methyl-1H-imidazol-1-yl)benzylidene]piperidin-2-one], the IC50 was 100 nM.

In the case of `COc1cc(/C=C/C(=O)N[C@H]2CCOc3ccccc32)ccc1-n1cnc(C)c1` (mixture of isomers) [Example 414, (E)-N-[(4R) and (4S)-chroman-4-yl]-3-[3-methoxy-4-(4-methyl-1H-imidazol-1-yl)phenyl]acrylamide], the IC50 was determined as 130 nM.

Regarding `COc1cc(/C=C2\CCCN(Cc3cccc(I)c3)C2=O)ccc1-n1cnc(C)c1` [Example 402, (E)-1-(3-iodobenzyl)-3-[3-methoxy-4-(4-methyl-1H-imidazol-1-yl)benzylidene]piperidin-2-one monotrifluoroacetic acid salt], the IC50 came to 70 nM.

Take `COc1cc(/C=C/C(=O)N2CCC(c3cc4ccccc4n3CCO)CC2)ccc1-n1cnc(C)c1` [Example 366, (E)-1-{4-[1-(2-hydroxyethyl)-1H-indol-2-yl]piperidin-1-yl}-3-[3-methoxy-4-(4-methyl-1H-imidazol-1-yl)phenyl]propenone]: the IC50 was found to be 330 nM.

As to `COc1cc(/C=C2\CCCN(C(c3ccc(F)cc3)C(C)C)C2=O)ccc1-n1cnc(C)c1` [Example 976, (E)-1-[(1S) and (1R)-1-(4-fluorophenyl)-2-methylpropyl]-3-[3-methoxy-4-(4-methyl-1H-imidazol-1-yl)benzylidene]piperidin-2-one], the IC50 came to 80 nM.

Regarding `COc1cc(/C=C2\CCCN(C3Cc4ccc(F)cc4C3)C2=O)ccc1-n1cnc(C)c1` [Example 991, (E)-1-[(2S) and (2R)-5-fluoroindan-2-yl]-3-[3-methoxy-4-(4-methyl-1H-imidazol-1-yl)benzylidene]piperidin-2-one], the IC50 was determined as 60 nM.

Consider `COc1cc(/C=C2\CCCN(C(C)c3c[nH]c4ccccc34)C2=O)ccc1-n1cnc(C)c1` [Example 965, (E)-1-[(1R) and (1S)-(1H-indol-3-yl)ethyl]-3-[3-methoxy-4-(4-methyl-1H-imidazol-1-yl)benzylidene]piperidin-2-one], for which the IC50 was found to be 87 nM.

With `COc1cc(/C=C2\CCCN(C3CCc4ccccc4C3)C2=O)ccc1-n1cnc(C)c1` (stereo not drawn) [Example 1014, (E)-3-[3-methoxy-4-(4-methyl-1H-imidazol-1-yl)benzylidene]-1-[(2R and 2S)-1,2,3,4-tetrahydronaphthalen-2-yl]piperidin-2-one], the half-inhibitory concentration (IC50) was determined as 60 nM.

Turning to `COc1cc(/C=C2\CCCN(Cc3ccc(C(C)(C)C)cc3)C2=O)ccc1-n1cnc(C)c1` [Example 430, (E)-1-(4-tert-butylbenzyl)-3-[3-methoxy-4-(4-methyl-1H-imidazol-1-yl)benzylidene]piperidin-2-one], the IC50 came to 119 nM.

Regarding `COc1cc(/C=C2\CCCN(C3(c4ccc(F)cc4)CCOCC3)C2=O)ccc1-n1cnc(C)c1` [Example 639, (E)-1-[4-(4-fluorophenyl)tetrahydropyran-4-yl)-3-(3-methoxy-4-(4-methyl-1H-imidazol-1-yl)benzylidene]piperidin-2-one], the IC50 is 56 nM.

In the case of `COc1cc(/C=C(\Cc2ccccc2)C(=O)N[C@@H]2c3ccccc3C[C@@H]2O)ccc1-n1cnc(C)c1` [Example 96, (E)-2-benzyl-N-[(1R,2S)-2-hydroxy-indan-1-yl]-3-[3-methoxy-4-(4-methyl-1H-imidazol-1-yl)phenyl]acrylamide trifluoroacetic acid salt], the IC50 amounted to 220 nM.

As to `COc1cc(/C=C2\CCCN(Cc3ccc(F)c(F)c3)C2=O)cnc1-n1cnc(C)c1` [Example 611, (E)-1-(3,4-difluorobenzyl)-3-{[5-methoxy-6-(4-methyl-1H-imidazol-1-yl)pyridin-3-yl]methylene}piperidin-2-one], the concentration for half-maximal inhibition (IC50) is 265 nM.

Regarding `COc1cc(/C=C/C(=O)N2CCCC(c3ccc(F)cc3)CC2)ccc1-n1cnc(C)c1` (stereo not drawn) [Example 353, (E)-1-[4-(4-fluorophenyl)azepan-1-yl]-3-[3-methoxy-4-(4-methyl-1H-imidazol-1-yl)phenyl]propenone], the IC50 came to 220 nM.

`COc1cc(/C=C/C(=O)N[C@@H](CF)Cc2ccccc2)ccc1-n1cnc(C)c1` [Example 139, (E)-N-[(1R)-fluoromethyl-2-phenylethyl]-3-[3-methoxy-4-(4-methyl-1H-imidazol-1-yl)phenyl]acrylic acid amide]: the IC50 was 200 nM.

As to `COc1cc(/C=C2\CCCN(C3COc4ccccc4C3)C2=O)ccc1-n1cnc(C)c1` (stereo not drawn) [Example 1027, (E)-1-[(3R and 3S)-chroman-3-yl]-3-[3-methoxy-4-(4-methyl-1H-imidazol-1-yl)benzylidene]piperidin-2-one], the IC50 came out at 71 nM.

`COc1cc(/C=C2\CCCN(Cc3cccc(F)c3)C2=O)ccc1-n1cnc(C)c1` [Example 398, (E)-1-(3-fluorobenzyl)-3-[3-methoxy-4-(4-methyl-1H-imidazol-1-yl)benzylidene]piperidin-2-one]: the IC50 turned out to be 220 nM.

In the case of `COc1cc(/C=C2\CCCN(Cc3cccc(Cl)n3)C2=O)ccc1-n1cnc(C)c1` [Example 427, (E)-1-[(6-chloropyridin-2-yl)methyl]-3-[3-methoxy-4-(4-methyl-1H-imidazol-1-yl)benzylidene]piperidin-2-one], the IC50 was determined as 780 nM.

On to `COc1cc(/C=C(\F)C(=O)NC2c3ccccc3-c3ccccc32)ccc1-n1cnc(C)c1` [Example 86, N-(9H-fluoren-9-yl)-2-fluoro-3-[3-methoxy-4-(4-methyl-1H-imidazol-1-yl)phenyl]acrylamide], for which the IC50 came to 320 nM.

Take `COc1cc(/C=C2\CCCN([C@H]3CCOc4ccccc43)C2=O)ccc1-n1cnc(C)c1` (mixture of isomers) [Example 420, (E)-1-[(4R) and (4S)-chroman-4-yl]-3-[3-methoxy-4-(4-methyl-1H-imidazol-1-yl)benzylidene]piperidin-2-one]: the half-maximal inhibitory concentration (IC50) was found to be 120 nM.

Consider `COc1cc(/C=C2\CCCN(C3Cc4ccccc4C3)C2=O)ccc1-n1cnc(C)c1` [Example 418, (E)-1-indan-2-yl-3-[3-methoxy-4-(4-methyl-1H-imidazol-1-yl)benzylidene]piperidin-2-one], for which the IC50 is 109 nM.

For `COc1cc(/C=C2\CCCN(C3CCOc4cc(F)ccc43)C2=O)ccc1-n1cnc(C)c1` [Example 1025, (E)-1-[(4R) and (4S)-7-fluorochroman-4-yl]-3-[3-methoxy-4-(4-methyl-1H-imidazol-1-yl)benzylidene]piperidin-2-one], the IC50 was 70 nM.

With `COc1cc(/C=C2\CCCN([C@@H](C)c3ccc(F)cc3)C2=O)ccc1-n1cnc(C)c1` [Example 425, (E)-1-[(1S)-1-(4-fluorophenyl)ethyl]-3-[3-methoxy-4-(4-methyl-1H-imidazol-1-yl)benzylidene]piperidin-2-one], the IC50 was determined as 80 nM.

With `COc1cc(/C=C/C(=O)N2CCC(c3cc4ccccc4[nH]3)CC2)ccc1-n1cnc(C)c1` [Example 338, (E)-1-{4-(1H-indol-2-yl)piperidin-1-yl}-3-[3-methoxy-4-(4-methyl-1H-imidazol-1-yl)phenyl]propenone], the IC50 is 330 nM.

The values above are taken from US7687640B2, “Cinnamide compound” (Eisai R&D Management Co., Ltd., priority 2004, dated 2010).
